Assays:
[1] = tested on: SK-Hep-1, a liver adenocarcinoma (hepatoma); experiment: Cell Proliferation ELISA, BudR (colorimetric), hepatoma cells; assay type: cell-based, human; details: for suppression of hepatoma proliferation, adjuvant combined with ADR: adjuvant 0.5 mM AA equivalents, one application of ADR, two of adjuvant, prominent at ADR 0.003-0.03 micromolar; for inhibition of hepatoma proliferation, single agent: ADR 0.02-0.33 micromoles, furanone 0.001-0.01% compared at same absolute concentration
Text: (§1) Calcium ascorbate (CA), calcium threonate (CT), 4-hydroxy-5-methyl-3(2H)-furanone (FR) and Ester-C (EC) are obtained from Inter-Cal Corporation, Prescott, Ariz., USA. Tissue culture grade Ascorbic acid (AA) is from Sigma Chemical Company, St. Louis, Mo., USA. The composition of calcium ascorbate (calcium di-(L-ascorbate) dihydrate) is made by sequentially dissolving the salt in sterile water to obtain master-stock solutions of equal strength (1% w/v). Aqueous solution of calcium ascorbate plus calcium threonate plus 4-hydroxy-5-methyl-3(2H)-furanone (CA/CT/FR) is prepared at ratio of 85/7.5/7.5. For comparative analysis, stock solutions containing identical ascorbic acid (AA) equivalents are used. All master stocks are stored at room temperature during the course of these procedures. From these, 10× strength working stocks are prepared by serial dilution on the day of use and are applied to cells in microtiter plates as described below.
Adriamycin (doxorubicin) is obtained from Sigma Chemical Company (St. Louis, Mo.). Stock solutions are made by dissolving adriamycin (ADR) in sterile water and DTIC in water or dilute acetic acid solution (0.01N). Stocks are stored frozen at −10 C. and thawed prior to use. Serial dilutions are made in sterile water to obtain 10× strength solutions and one tenth volume of this is applied to cells at the time of treatment.
Target human tumor-derived lines consist of SK-Hep-1, a liver adenocarcinoma ([…]) and Malme-3M, a malignant melanoma. All seed cultures are obtained from ATCC, Manassas, Va., USA and are propagated/maintained in serum-containing growth medium in a humidified incubator of 5% CO2/95% air. SK-Hep-1 cells are grown in Eagle's minimum essential medium (EMEM) in Earle's salts plus non-essential amino acids supplemented with 10% FBS plus antibiotics and Malme-3M cells are cultured in McCoy's medium supplemented with 15% fetal bovine serum (FBS) plus antibiotics.
For treatment, exponentially growing cells are seeded at a density of 1×10^4 cells per well of 96-well microtiter plate in 0.1-0.2 ml of growth medium. After overnight cell attachment at 37 C., duplicate wells are exposed to various treatments by direct application of one-tenth volume of 10× strength solution. For treatments involving chemotherapeutic agent, one-tenth volume of serial dilutions of adriamycin (0.0006-3.0 micromolar) are applied to wells followed by application of ascorbate-containing composition (adjuvant) or sterile water (control). The adjuvant treatment is repeated every other day or on the third day (as applicable) without change of growth medium. Untreated controls receive an equivalent amount of sterile water. After 2-3 treatments with adjuvant, cells are labeled with BudR as described below. (In some experiments, wells are refed an equal volume of growth medium prior to additional of BudR. This gives a higher amount of BrdU incorporation into DNA relative to no refluiding).
For DNA labeling, the following procedure is adapted and modified from the Cell Proliferation ELISA, BudR (Colorimetric) assay of Roche Diagnostics, Indianapolis, Ind., USA: Each treated well is exposed to one-tenth volume of 10× BrdU-containing medium and reincubated at 37 C. overnight (15-20 hrs.). One set of control wells is exposed to medium only (no BudR) to obtain an absorbance-control (substrate only) blank for the assay. After the labeling period, the culture medium is removed and the cells are fixed and DNA denatured in one step by adding FixDenat (30 min at RT). Then, FixDenat is removed, the anti-BrdU-peroxidase reagent is added and incubation continues for 90 min at RT. After removal of the latter, the plate is washed 3 times, followed by addition of substrate solution. The plate is kept at RT until color development became sufficient for photometric detection ([…]). At this time, reaction is stopped by addition to each well of 25 microliter 1M sulfuric acid followed by mixing for approximately 1 min on the shaker. […]

[2] = tested on: normal human liver (WRL 68); experiment: Cell death detection ELISA (histone-DNA complexes), normal liver cells; assay type: cell-based; details: 0.01-0.0001% furanone, three sequential treatments
Experimental: (§2) Four human tumor cell types, shown previously to be sensitive to combinations of mineral ascorbate plus metabolites are evaluated. These lines consist of: (i) a liver hepatoma (SK-Hep-1), (ii) a malignant melanoma (Malme-3M), (iii) a neurobastoma (SK-N-MC) and (iv) a colon carcinoma (T84). Non-malignant cell types consist of: normal human liver (WRL 68), normal skin fibroblasts (Malme-3) and normal retinal epithelial cells (ARPE-19). The tumor-derived lines, normal liver and skin fibroblasts are obtained from the American Type Culture Collection (ATCC). The ARPE-19 cell line is a gift from a colleague at California Institute for Medical Research. Cells are grown and maintained in culture, in a humidified incubator of 5% CO2/95% air. […]
(§3) Subconfluent monolayers of 1-2 old, adherent cultures (seeded at a density of 10,000 cells per well in a 96-well plate) are exposed to 0.1 volume of serial dilutions (10× concentrated solutions) of the furanone and the plate is returned to the incubator. […] The supernatant (cytoplasmic lysate) is saved and in aliquot (20 microliters) was assayed for the presence of histone-DNA complexes (nucleosomal fragments) by photometric detection (absorbance at 405-410 nm) using cell death detection Elisa assay (Roche Diagnostics).

[3] = tested on: neurobastoma (SK-N-MC); experiment: Cell death detection ELISA, neuroblastoma cells; assay type: cell-based, human; details: up to max of 0.001% furanone
Experimental: as §2, §3

[4] = tested on: colon carcinoma (T84); experiment: Cell death detection ELISA, colon carcinoma cells; assay type: cell-based, human; details: up to a max. of 0.01% furanone
Experimental: as §2, §3

[5] = tested on: malignant melanoma (Malme-3M); experiment: Cell death detection ELISA, melanoma cells; assay type: cell-based, human
Experimental: as §2, §3

[6] = tested on: Malme-3M, a malignant melanoma; experiment: Cell Proliferation ELISA, BudR (colorimetric), melanoma cells; assay type: cell-based, human; details: furanone at 0.1% as printed; FIG. 21
Text: as §1, with “below. […]” for “below.”
For DNA labeling, the following procedure is adapted and modified from the Cell Proliferation ELISA, BudR (Colorimetric) assay of Roche Diagnostics, Indianapolis, Ind., USA: Each treated well is exposed to one-tenth volume of 10× BrdU-containing medium and reincubated at 37 C. overnight (15-20 hrs.). One set of control wells is exposed to medium only (no BudR) to obtain an absorbance-control (substrate only) blank for the assay. […]

[7] = tested on: normal skin fibroblasts (Malme-3); experiment: Cell death detection ELISA, normal skin fibroblasts; assay type: cell-based, human; details: two furanone preparations
Experimental: as §2, §3

[8] = tested on: liver hepatoma (SK-Hep-1); experiment: Cell death detection ELISA, hepatoma cells; assay type: cell-based, human
Experimental: as §2, §3

[9] = tested on: normal retinal epithelial cells (ARPE-19); experiment: Cell death detection ELISA, normal retinal epithelial cells; assay type: cell-based, human; details: up to max of 0.003% furanone
Experimental: as §2, §3

Q: How did the “suppression of hepatoma proliferation, adjuvant combined with ADR” value (from here on “suppression of hepatoma proliferation”) [1] turn out when `O=C1O[C@H]([C@@H](O)CO)C(O)=C1O` [AA, Ascorbic acid, reference compound] was run?
A: greater suppression of hepatoma proliferation than ADR alone

Q: `COc1cccc2c1C(=O)c1c(O)c3c(c(O)c1C2=O)C[C@@](O)(C(=O)CO)C[C@@H]3O[C@H]1C[C@H](N)[C@H](O)[C@H](C)O1` [ADR, Adriamycin (doxorubicin), reference compound] was tested. Which “inhibition of hepatoma proliferation, single agent” value [1] did it give?
A: dose-dependent inhibition of hepatoma proliferation

Q: What does the source list for `CC1=C(O)C(=O)CO1` [furanone, 4-hydroxy-5-methyl-3(2H)-furanone]?
A: reduction in cellular DNA synthesis compared to untreated control ([1]; 0.01% furanone alone): ~4.6 fold; enhancement of the inhibitory effect of ADR ([1]; ADR 0.007 micromolar, adjuvant 0.01%): 7 fold; inhibition of hepatoma proliferation, single agent [1]: more effective in inhibiting hepatoma proliferation than either the triple ascorbate/metabolite mix or Ester-C®; minimal dose of furanone required to produce 2-fold enhancement of ADR inhibition ([1]; two independent experiments): ~0.0016%; maximal change in cell-death rate [2]: less than 0.3 logs; change in death rates [3]: does not elicit significant changes in death rates; change in rate of cellular apoptosis over untreated control [4]: < 0.5 log; minimal concentration required to produce 2-fold change in apoptosis rate [5]: 0.003%; enhancement of the inhibitory effect of ADR in melanoma cells [6]: consistently enhances the inhibitory effect of ADR at all concentrations of the chemotherapeutic drug; increase in apoptosis [7]: < 0.3 log; cell death in hepatoma cells ([8]; furanone 0.001-0.01% (0.08-0.88 mM), three sequential treatments): sharp rises in cell death; minimal concentration required to produce 2-fold change in apoptosis rate ([8]; hepatoma cells): < 0.001%; change in death rates [9]: does not elicit significant changes in death rates

Q: With calcium di-(L-ascorbate) dihydrate as the molecule, how does the “improvement of anti-proliferation activity of ADR” value ([1]; 0.033% adjuvant, low doses of ADR) read?
A: consistently improve the anti-proliferation activity of low doses of ADR

Q: What about the “suppression of hepatoma proliferation” value ([1]; dihydrate) of the same molecule?
A: greater suppression of hepatoma proliferation than ADR alone

Q: What about the “suppression of hepatoma proliferation” value ([1]; listed as Calcium ascorbate, dihydrate) of the same molecule?
A: more effective than ascorbic acid

— patent US20040242679A1, “Methods and compositions for potentiating cancer chemotherapeutic agents” (priority 2002, published 2004)
